Values of other authors in patent US9682081B2, “Pharmaceutical gastro-retentive solid oral dosage form of nilotinib” (SUN PHARMACEUTICAL INDUSTRIES LIMITED, priority 2013, dated 2017).

Tests used:
[1] = Class IV means low/moderate aqueous solubility and low permeability
[2] = 25° C., pH 4.5 and higher

Biopharmaceutical Classification System (BCS) class [1]: Class IV | solubility in aqueous solutions [2]: practically insoluble
SMILES: Cc1cn(-c2cc(NC(=O)c3ccc(C)c(Nc4nccc(-c5cccnc5)n4)c3)cc(C(F)(F)F)c2)cn1 [Nilotinib, 4-methyl-N-[3-(4-methyl-1H-imidazol-1-yl)-5-(trifluoromethyl)phenyl]-3-[[4-(3-pyridinyl)-2-pyrimidinyl]amino]-benzamide]
